Reference: patent US11981677B2, “Further substituted triazolo quinoxaline derivatives” (Grünenthal GmbH, priority 2018, dated 2024)

Biological target: T1, Glucocorticoid Receptor (Homo sapiens, UniProt P04150)
T1 construct: expressed in transfected cells
T1 sequence (P04150 524-758 limits assumed): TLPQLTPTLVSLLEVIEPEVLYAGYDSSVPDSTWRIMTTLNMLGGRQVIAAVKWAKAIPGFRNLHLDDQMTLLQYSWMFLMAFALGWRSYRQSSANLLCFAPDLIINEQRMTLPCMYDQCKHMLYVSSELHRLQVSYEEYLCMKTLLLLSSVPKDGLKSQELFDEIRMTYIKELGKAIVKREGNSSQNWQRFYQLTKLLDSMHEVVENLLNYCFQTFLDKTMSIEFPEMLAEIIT
Experiment: Agonistic mode of action on the glucocorticoid receptor (CHO-Gal4/GR luciferase reporter cell line)
Assay type: cell-based
Details: CHO-Gal4/GR luciferase reporter cells; observed in the agonistic assay or the antagonistic assay (mode not given); read-out: IC50 or EC50 range
Outline: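 CHO cells stably expressing GAL4 DBD–GR ligand-binding domain fusion with GAL4-UAS firefly luciferase reporter, seeded 24 h, then treated in Opti-MEM with 8 half-log concentrations from 10 μM to 0.003 μM (0.5% DMSO), quadruplicate. Luminescence read on FLIPR after lysis with Triton/luciferin; EC50 calculated.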

IC50 or EC50 (antagonist or agonist mode, not stated per compound) [nM]	SMILES
100 to 1000	COc1c(-c2cccc3[nH]ccc23)cc(F)c2c1-n1c(C)nnc1C(C)(C)N2 [Example 469, 6-Fluoro-8-(1H-indol-4-yl)-9-methoxy-1,4,4-trimethyl-5H-[1,2,4]triazolo[4,3-a]quinoxaline]
< 100	Cc1c(-c2cccc3c2ccn3S(C)(=O)=O)cc(Cl)c2c1-n1c(C)nnc1C(C)(C)N2 [Example 456, 6-Chloro-1,4,4,9-tetramethyl-8-(1-methylsulfonyl-1H-indol-4-yl)-5H-[1,2,4]triazolo[4,3-a]quinoxaline]
